Experimental data taken from US20200069648A1, “HALOALLYLAMINE PYRAZOLE DERIVATIVE INHIBITORS OF LYSYL OXIDASES AND USES THEREOF” (Pharmaxis Ltd., priority 2017, published 2020).
pIC50: −log10 of the molar value. Where a name gives a salt, the structure may show the parent alone.

How the values were obtained:
Human LOXL2 = molecular target: T1, Human LOXL2 (Homo sapiens, UniProt Q9Y4K0); test: LOXL2 amine oxidase inhibition, peroxidase-coupled Amplex Red assay; type: biochemical; settings: 30 min preincubation at 37° C., putrescine substrate
T1 sequence (Q9Y4K0 26-774): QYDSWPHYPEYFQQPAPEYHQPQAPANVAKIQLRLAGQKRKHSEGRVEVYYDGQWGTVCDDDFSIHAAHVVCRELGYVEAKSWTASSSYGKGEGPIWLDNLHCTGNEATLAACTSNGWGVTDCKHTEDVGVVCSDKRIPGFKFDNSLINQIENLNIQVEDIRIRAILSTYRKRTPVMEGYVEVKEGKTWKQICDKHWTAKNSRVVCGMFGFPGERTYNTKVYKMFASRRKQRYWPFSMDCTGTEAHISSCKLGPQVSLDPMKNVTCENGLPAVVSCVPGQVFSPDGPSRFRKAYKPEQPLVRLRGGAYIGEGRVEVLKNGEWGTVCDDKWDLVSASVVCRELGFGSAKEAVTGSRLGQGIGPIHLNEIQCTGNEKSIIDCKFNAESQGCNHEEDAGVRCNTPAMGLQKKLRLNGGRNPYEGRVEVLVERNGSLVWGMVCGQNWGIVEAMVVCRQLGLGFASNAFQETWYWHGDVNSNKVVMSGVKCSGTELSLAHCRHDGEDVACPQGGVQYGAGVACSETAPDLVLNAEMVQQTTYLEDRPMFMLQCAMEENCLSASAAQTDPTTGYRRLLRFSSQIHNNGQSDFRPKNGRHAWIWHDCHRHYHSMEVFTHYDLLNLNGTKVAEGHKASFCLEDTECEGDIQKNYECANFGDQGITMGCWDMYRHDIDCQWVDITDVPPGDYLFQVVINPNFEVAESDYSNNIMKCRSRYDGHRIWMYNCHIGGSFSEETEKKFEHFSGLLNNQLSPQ
Excerpt: (§1) Method to Determine the Ability of Compounds of the Invention to Inhibit LOX and LOXL1-4 from Different Sources
(§2) Lysyl oxidase (LOX) is an extracellular copper dependent enzyme which oxidizes peptidyl lysine and hydroxylysine residues in collagen and lysine residues in elastin to produce peptidyl alpha-aminoadipic-delta-semialdehydes. […] There are five LOX family members; these are LOX, LOXL1, LOXL2, LOXL3 and LOXL4. LOX and LOXL family members can be acquired as recombinant active proteins from commercial sources, or extracted from animal tissues like bovine aorta, tendons, pig skin; or prepared from cell cultures. The inhibitory effects of the compounds of the present invention were tested against the given LOX-LOXL preparation using a high-throughput coupled colorimetric method (Holt A. and Palcic M., A peroxidase-coupled continuous absorbance plate-reader assay for flavin monoamine oxidases, copper-containing amine oxidases and related enzymes. Nat. Protoc. 2006; 1: 2498-2505). The assay was developed using either 384 or 96 well format. Briefly, in a standard 384 well plate assay 25 μL of a dilution of any of the isoenzymes and orthologues in 1.2 M urea, 50 mM sodium borate buffer (pH 8.2) were added into each well in the presence of 1 μM mofegiline and 0.5 mM pargyline (to inhibit SSAO and MAO-B and MAO-A, respectively). Test compounds were dissolved in DMSO and tested in a Concentration Response Curve (CRC) with 11 data points, typically in the micromolar or nanomolar range after incubation with the enzyme for 30 min at 37° C. Twenty five μL of a reaction mixture containing twice the KM concentration of putrescine (Sigma Aldrich, e.g. 20 mM for LOX, or 10 mM for LOXL2 and LOXL3), 120 μM Amplex Red (Sigma Aldrich) and 1.5 U/mL horseradish peroxidase (Sigma Aldrich) prepared in 1.2 M urea, 50 mM sodium borate buffer (pH 8.2) were then added to the corresponding wells. The above volumes were doubled in the case of 96 wells plate. The fluorescence (RFU) was read every 2.5 min for 30 min at a range of temperatures from 37° to 45° C., excitation 565 nm and emission 590 (Optima; BMG labtech). The slope of the kinetics for each well was calculated using MARS data analysis software (BMG labtech) and this value was used to deduce the IC50 value (Dotmatics).

Bovine LOX = molecular target: T2, Bovine LOX (Bos taurus, UniProt P33072); test: LOX amine oxidase inhibition, peroxidase-coupled Amplex Red assay; type: biochemical; settings: 30 min preincubation at 37° C., putrescine substrate
T2 sequence (P33072 170-418): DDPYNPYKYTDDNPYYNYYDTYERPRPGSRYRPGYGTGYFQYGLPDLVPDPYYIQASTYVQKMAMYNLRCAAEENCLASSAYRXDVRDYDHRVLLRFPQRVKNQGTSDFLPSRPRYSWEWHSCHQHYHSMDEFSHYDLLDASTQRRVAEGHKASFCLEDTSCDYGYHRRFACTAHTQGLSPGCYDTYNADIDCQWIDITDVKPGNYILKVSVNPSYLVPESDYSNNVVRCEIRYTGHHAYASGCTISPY
Excerpt: as §1
as §2, with “Test compounds were dissolved in DMSO and tested in a Concentration Response Curve (CRC) with 11 data points, typically in the micromolar or nanomolar range after incubation with the enzyme for 30 min at 37° C.” left out

SMILES | pIC50 (Human LOXL2) | pIC50 (Bovine LOX)
Cc1nn(C/C(F)=C/CN)c(C)c1-c1cccc(S(=O)(=O)N(C)C)c1 [Compound 33, (Z)-3-(1-(4-amino-2-fluorobut-2-en-1-yl)-3,5-dimethyl-1H-pyrazol-4-yl)-N,N-dimethylbenzenesulfonamide] | > 6.00 | > 5.00
Cc1c(-c2cccc(S(=O)(=O)N(C)C)c2)c(Cl)nn1C/C(F)=C/CN [Compound 34, (Z)-3-(1-(4-amino-2-fluorobut-2-en-1-yl)-3-chloro-5-methyl-1H-pyrazol-4-yl)-N,N-dimethylbenzenesulfonamide hydrochloride] | > 6.00 | > 5.00
Cc1nn(C/C(F)=C/CN)c(Cl)c1-c1cccc(S(=O)(=O)N(C)C)c1 [Compound 35, (Z)-3-(1-(4-amino-2-fluorobut-2-en-1-yl)-5-chloro-3-methyl-1H-pyrazol-4-yl)-N,N-dimethylbenzenesulfonamide hydrochloride] | > 6.00 | > 5.00
Cc1c(Cc2ccc(S(=O)(=O)N(C)C)c(Cl)c2)c(C(C)O)nn1C/C(F)=C/CN (stereo not shown) [Compound 37, (Z)-4-((1-(4-amino-2-fluorobut-2-en-1-yl)-3-(1-hydroxyethyl)-5-methyl-1H-pyrazol-4-yl)methyl)-2-chloro-N,N-dimethylbenzenesulfonamide] | > 6.00 | > 5.00
COCc1c(Cc2ccc(S(=O)(=O)N(C)C)c(Cl)c2)c(C)nn1C/C(F)=C/CN [Compound 38, (Z)-4-((1-(4-amino-2-fluorobut-2-en-1-yl)-5-(methoxymethyl)-3-methyl-1H-pyrazol-4-yl)methyl)-2-chloro-N,N-dimethylbenzenesulfonamide] | > 6.00 | > 5.00
COCc1nn(C/C(F)=C/CN)c(C)c1Cc1ccc(S(=O)(=O)N(C)C)c(Cl)c1 [Compound 39, (Z)-4-((1-(4-amino-2-fluorobut-2-en-1-yl)-3-(methoxymethyl)-5-methyl-1H-pyrazol-4-yl)methyl)-2-chloro-N,N-dimethylbenzenesulfonamide] | > 6.00 | > 5.00
Cc1nn(C/C(F)=C/CN)c(C)c1Oc1ccc(S(=O)(=O)N(C)C)c(Cl)c1 [Compound 40, (Z)-4-((1-(4-amino-2-fluorobut-2-en-1-yl)-3,5-dimethyl-1H-pyrazol-4-yl)oxy)-2-chloro-N,N-dimethylbenzenesulfonamide] | > 6.00 | > 5.00
Cc1nn(C/C(F)=C/CN)c(Cl)c1Cc1ccc(S(=O)(=O)N(C)C)c(Cl)c1 [Compound 41, (Z)-4-((1-(4-amino-2-fluorobut-2-en-1-yl)-5-chloro-3-methyl-1H-pyrazol-4-yl)methyl)-2-chloro-N,N-dimethylbenzenesulfonamide] | > 6.00 | > 5.00
Cc1c(Cc2ccc(S(=O)(=O)N(C)C)c(Cl)c2)c(Cl)nn1C/C(F)=C/CN [Compound 42, (Z)-4-((1-(4-amino-2-fluorobut-2-en-1-yl)-3-chloro-5-methyl-1H-pyrazol-4-yl)methyl)-2-chloro-N,N-dimethylbenzenesulfonamide] | > 6.00 | > 5.00
Cc1nn(C/C(F)=C/CN)c(C(C)C)c1Cc1ccc(S(C)(=O)=O)nc1 [Compound 43, (Z)-3-fluoro-4-(5-isopropyl-3-methyl-4-((6-(methylsulfonyl)pyridin-3-yl)methyl)-1H-pyrazol-1-yl)but-2-en-1-amine dihydrochloride] | > 6.00 | > 5.00
Cc1nn(C/C(F)=C/CN)c(C)c1Cc1ccc(S(=O)(=O)C(F)(F)F)cc1 [Compound 44, (Z)-4-(3,5-dimethyl-4-(4-((trifluoromethyl)sulfonyl)benzyl)-1H-pyrazol-1-yl)-3-fluorobut-2-en-1-amine hydrochloride] | > 6.00 | > 5.00
CNS(=O)(=O)c1ccc(Cc2c(C)nn(C/C(F)=C/CN)c2C)cc1OC(F)(F)F [Compound 45, (Z)-4-((1-(4-amino-2-fluorobut-2-en-1-yl)-3,5-dimethyl-1H-pyrazol-4-yl)methyl)-N-methyl-2-(trifluoromethoxy)benzenesulfonamide hydrochloride] | > 6.00 | > 5.00
Cc1nn(Cc2ccc(S(=O)(=O)N(C)C)c(Cl)c2)c(C)c1C/C(F)=C/CN [Compound 46, (Z)-4-((4-(4-amino-2-fluorobut-2-en-1-yl)-3,5-dimethyl-1H-pyrazol-1-yl)methyl)-2-chloro-N,N-dimethylbenzenesulfonamide hydrochloride] | > 6.00 | > 5.00
Cc1nn(Cc2ccc(S(=O)(=O)N(C)C)cc2Cl)c(C)c1C/C(F)=C/CN [Compound 47, (Z)-4-((4-(4-amino-2-fluorobut-2-en-1-yl)-3,5-dimethyl-1H-pyrazol-1-yl)methyl)-3-chloro-N,N-dimethylbenzenesulfonamide hydrochloride] | > 6.00 | > 5.00
Cc1nn(C/C(F)=C/CN)c(C)c1Cc1ccc(NS(C)(=O)=O)cc1 [Compound 48, (Z)—N-(4-((1-(4-amino-2-fluorobut-2-en-1-yl)-3,5-dimethyl-1H-pyrazol-4-yl)methyl)phenyl)methane-sulfonamide hydrochloride] | > 6.00 | > 5.00
Cc1nn(C/C(F)=C/CN)c(C)c1Cc1ccc(S(=O)(=O)C(C)C)c(Cl)c1 [Compound 49, (Z)-4-(4-(3-chloro-4-(isopropylsulfonyl)benzyl)-3,5-dimethyl-1H-pyrazol-1-yl)-3-fluorobut-2-en-1-amine hydrochloride] | > 6.00 | > 5.00
Cc1c(Cc2ccc(S(=O)(=O)N(C)C)cc2)c(C(C)(C)C)nn1C/C(F)=C/CN [Compound 50, (Z)-4-((1-(4-amino-2-fluorobut-2-en-1-yl)-3-(tert-butyl)-5-methyl-1H-pyrazol-4-yl)methyl)-N,N-dimethylbenzenesulfonamide hydrochloride] | > 6.00 | > 5.00
